Measured values taken from ChEMBL document CHEMBL1146999, “Bradykinin antagonists modified with dipeptide mimetic beta-turn inducers” (Bioorg Med Chem Lett, 2006).

What was measured:
[1] = target: T1, B2 bradykinin receptor (Homo sapiens, UniProt P30411); assay: Binding affinity to human bradykinin B2 receptor transfected in CHO cells; format: cell-based
T1 sequence (P30411 whole entry): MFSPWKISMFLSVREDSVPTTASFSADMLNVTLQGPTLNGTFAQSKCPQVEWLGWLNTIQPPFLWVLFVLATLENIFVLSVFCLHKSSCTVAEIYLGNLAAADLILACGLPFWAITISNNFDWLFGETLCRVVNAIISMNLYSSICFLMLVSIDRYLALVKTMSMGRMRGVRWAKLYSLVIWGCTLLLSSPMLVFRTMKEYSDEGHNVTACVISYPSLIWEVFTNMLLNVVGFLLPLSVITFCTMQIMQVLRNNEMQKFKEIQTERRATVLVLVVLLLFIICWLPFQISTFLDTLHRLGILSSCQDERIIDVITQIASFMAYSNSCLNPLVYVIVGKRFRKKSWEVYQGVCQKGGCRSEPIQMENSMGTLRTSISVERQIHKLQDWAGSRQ

[2] = target: T1, B2 bradykinin receptor; assay: Antagonist activity against bradykinin B2 receptor; format: functional; settings: read-out: pA2 (converted)

| Compound | Ki [1] [nM] | Kb [2] [nM] |
| --- | --- | --- |
| NC(N)=NCCC[C@@H](N)C(=O)N[C@@H](CCCN=C(N)N)C(=O)N1CCC[C@H]1C(=O)N1CC(O)C[C@H]1C(=O)NCC(=O)N[C@@H](Cc1cccs1)C(=O)N[C@@H](CO)C(=O)N[C@@]1(Cc2ccccc2)CCCC2N(C1=O)[C@H](C(=O)N[C@@H](CCCN=C(N)N)C(=O)O)CC21CCCC1 (some centres undefined) | 100 | 2510 |
| NC(N)=NCCC[C@@H](N)C(=O)N[C@@H](CCCN=C(N)N)C(=O)N1CCC[C@H]1C(=O)N1CC(O)C[C@H]1C(=O)NCC(=O)N[C@@H](Cc1cccs1)C(=O)N[C@@H](CO)C(=O)N[C@]1(Cc2ccccc2)CCCC2N(C1=O)[C@H](C(=O)N[C@@H](CCCN=C(N)N)C(=O)O)CC21CCCC1 (some centres undefined) | 3160 | > 10000 |
